Laboratory results taken from patent US20050118226A1, “Methods for treating ACAT-related diseases” (priority 2003, published 2005).

System: ACAT
Experiment: Cholesterol determinations in hAPP mice treated two months with CP-113,818 pellets
Format: in vivo, mouse
Details: 7.2 mg/kg/day, 57 days
Excerpt: hAPP transgenic mice overexpress human APP751 with the London (V717I) and Swedish (K670M/N671L) mutations under the regulatory control of the neuron specific murine (m)Thy-1 promoter (mThy-1-hAPP751; heterozygous with respect to the transgene, on a C57BL/6 F3 background) (Rockenstein et al., 2001). The hAPP colony was sustained by crossing transgenic APP751 with C57BL/6 (Harlan Winkelman, Germany). Corresponding littermates were used for control studies. All mice were housed according to standard animal care protocols, fed ad libitum with standard chow diet, and maintained in a pathogen-free environment in single ventilated cages at JSW Research. The transgenic status of each animal was confirmed by real time PCR of tail snips using specific primers and the appropriate hybridization probe. A modified Irvine test was regularly performed prior to the experiment to assess the neurological status of the animals; those showing disturbances were excluded from the experiments. Mice were then randomly assigned to different treatment groups and individually coded. Investigators performing behavioral testing, biochemical analyzes and histomorphological evaluations of the brains were blinded in terms of group allocation of the mice. […]
Animals were sacrificed the day after the last MWM training, on day 57 of treatment. […] Hematoxylin and eosin stained 6-8 um sections were analyzed for evidence of CP-113,818 toxicity.
Tissues were homogenized in the presence of trypsin (10 mg/ml) in a Dounce homogenizer on ice. Protein concentration of the homogenate was determined using the BCA protein assay kit (Pierce). […] Dried lipid pellets were dissolved in water and total amount of cholesterol was determined with an enzymatic assay (Sigma; cat. no. 402-20). As control, free cholesterol was determined with a different enzymatic assay (R-Biopharm GmbH, Darmstadt, Germany; cat. no. E0139050). The amount of cholesteryl-esters was calculated by subtracting free from total cholesterol. […]

CCCCCCCC[C@H](SCCCCCC)C(=O)Nc1c(SC)cc(C)nc1SC [CP-113,818]
decrease of liver cholesterol: 34%
decrease of liver cholesteryl-esters: 87%
decrease of serum cholesterol: 35%
